In BindingDB's records for doi:10.1021/jm0205696 (Abbott Laboratories, 2003) one finds Ki data, which are given here for one compound.

The experiment addresses T1, Tyrosine-protein phosphatase non-receptor type 2 (Homo sapiens, UniProt P17706).
T1 sequence (P17706 whole entry): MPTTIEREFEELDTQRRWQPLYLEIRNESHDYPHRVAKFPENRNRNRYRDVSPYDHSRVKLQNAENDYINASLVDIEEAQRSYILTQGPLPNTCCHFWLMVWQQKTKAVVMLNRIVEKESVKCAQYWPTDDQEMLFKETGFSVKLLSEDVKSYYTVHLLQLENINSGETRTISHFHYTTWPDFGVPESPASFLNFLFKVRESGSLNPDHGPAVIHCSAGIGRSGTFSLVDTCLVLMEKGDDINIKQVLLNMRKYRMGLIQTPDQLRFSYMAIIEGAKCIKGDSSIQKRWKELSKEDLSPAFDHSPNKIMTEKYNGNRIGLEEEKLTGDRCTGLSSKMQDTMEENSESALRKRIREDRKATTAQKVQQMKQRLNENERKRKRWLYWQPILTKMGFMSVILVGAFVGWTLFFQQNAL
Briefly: PTP1B and TCPTP Inhibition Assay.

Protocol: For each concentration of test compound or DMSO control, the initial rates were used to fit the rectangular hyperbola of Michaelis-Menten by nonlinear regression analysis. The ratio of the apparent Km/Vmax vs inhibitor concentration was plotted, and the Ki was calculated by linear regression to be the negative X-intercept.

Take `CCCCCNC(=O)[C@H](Cc1ccc(N(C(=O)C(=O)O)c2ccccc2C(=O)O)c(/C=C/C(N)=O)c1)NS(C)(=O)=O` [2-{[2-(2-Carbamoylvinyl)-4-(2-(S)-methanesulfonylamino 2-pentylcarbamoylethyl)phenyl]oxalylamino}-benzoic Acid]: the inhibitory constant (Ki) was found to be 160 nM.
